In PMC8161026, “Synthesis and Anticancer Activity Evaluation of 5-[2-Chloro-3-(4-nitrophenyl)-2-propenylidene]-4-thiazolidinones” (Molecules, 2021):

What was measured:
[1] = in vitro; conditions: human
Method: (§1) Another part of our study was to determine the influence of compounds 2f, 2i, 2j, and 2h on normal human blood lymphocytes (Figure 5). […] Thus, normal blood lymphocytes are blood cells, as well as cells of leukemia cell lines, therapeutic index (TI) of compounds 2f, 2h, and 2j was calculated as GI50 (normal blood lymphocyte)/GI50 (leukemia cell line) (Table 5).
(§2) Figure 5 Human lymphocyte viability after 48 h of 2f, 2i, 2j, 2h, and Ciminalum drug exposure was estimated by MTT assay.
(§3) The assay was performed by using 3-(4,5-dimethylthiazole-2-yl)- 2,5-diphenyltetrazolium bromide (MTT). Confluent cells, cultured for 24 h with 0.1, 1, 5, 10, 20, 30, and 100 µM concentrations of studied compounds in 24-well plates were washed with PBS. MTT was dissolved in PBS, and 25 µL were added to each well. Plates were incubated for 4 h at 37 °C in 5% CO2 in an incubator. The medium with MTT was removed, and 1 mL of DMSO was added to the attached cells. Furthermore, cells were incubated for 5–10 min in RT and then 10 µl of Sorensen buffer was added to each well. The absorbance of converted dye in living cells was measured at a wavelength of 570 nm. The cell viability of breast cancer cells, gastric cancer cells, and human colon cancer cells cultured in the presence of ligands was calculated as percent of control cells.
(§4) First, 20 mL of venous blood was taken from volunteers (Ethical protocol number 2, 27 January 2019) and collected in the presence of 200 μL of undiluted fresh heparin (1/100). Sterile blood was diluted 2 times with 0.9% NaCl under the sterile conditions. Isolation of lymphocytes was performed in a density gradient of ficol-verografin using the protocol of the manufacturer (Lympoprep, NYCOMED PHARMA AS, Oslo Norway). The resulting lymphocytes were resuspended in the RPMI-1640 medium and cultured for several days (up to 10 days). To separate the lymphocytes from the monocytes, cell suspension was left for 24 h. After 24 h of culture, monocytes were attached, while lymphocytes were transferred to a fresh Falcon tube (15 mL). To stimulate the proliferation of lymphocytes, they were cultured on CD3+ antibody-coated plastic plate in the RPMI-1640 medium supplemented with 20% FBS.

[2] = system: AGS (gastric cancer); assay: MTT cell viability assay; format: cell-based; conditions: Homo sapiens, 24 h
Method: (§5) In the second stage of the research, Ciminalum-thiazolidinone hybrids were investigated for antitumor activity on the lines of gastric cancer (AGS), human colon cancer (DLD-1), and breast cancers (MCF-7 and MDA-MB-231). The study was performed in the MTT assay according to the method described previously. The studied cancer line was sensitive to the action of the studied compounds that inhibited its growth in micromolar ranges of GI50. The hit compounds that inhibited the growth of all four cancer lines with the lowest GI50 values were [5-[2-chloro-3-(4-nitrophenyl)prop-2-enylidene]-rhodanines 2c, 2d, 2h, and 2i (Table 4).

[3] = system: DLD-1 (human colon cancer); assay: MTT cell viability assay; format: cell-based; conditions: DLD-1, MTT, 24 h
Method: as §5

[4] = system: MCF-7 (breast cancer); assay: MTT cell viability assay; format: cell-based; conditions: Homo sapiens, MCF7; MCF-7, MTT, 24 h
Method: as §5

[5] = system: MDA-MB-231 (breast cancer); assay: MTT cell viability assay; format: cell-based; conditions: Homo sapiens; MDA-MB-231, MTT, 24 h
Method: as §5

[6] = system: normal human blood lymphocytes; assay: in vitro
Method: as §1, §2, §3, §4

[7] = system: breast cancer lines MCF-7 and MDA-MB-231; assay: MTT cell viability assay, both breast cancer lines; format: cell-based; conditions: Homo sapiens; MCF-7 and MDA-MB-231, MTT; read-out: GI50 level
Method: as §5

[8] = system: Jurkat T-cells; parameters: method as in doi:10.7124/bc.00003D; conditions: cited from earlier work

Row | SMILES | GI50 at 48 h [1] [µM] | GI50 [2] [µM] | GI50 [3] [µM] | GI50 [4] [µM] | GI50 [5] [µM] | melting point [°C] | toxicity toward normal human blood lymphocytes [6] | GI50 [7] [µM] | caspase-7 activation [8] | cleavage of PARP-1 and DFF45 [8]
1 | O=C/C(Cl)=C/c1ccc([N+](=O)[O-])cc1 [Ciminalum, (2Z)-2-chloro-3-(4-nitrophenyl)prop-2-enal, reference compound] | 10.4 |  |  |  |  |  |  |  |  | 
2 | O=C1NC(=O)/C(=C/C(Cl)=C/c2ccc([N+](=O)[O-])cc2)S1 [Compound 2a, 5-[(Z,2Z)-2-Chloro-3-(4-nitrophenyl)-2-propenylidene]-2,4-thiazolidinedione] |  | 18.7 | 14 | 18 | 13.9 | > 270 |  |  |  | 
3 | O=C(NN1C(=O)/C(=C/C(Cl)=C/c2ccc([N+](=O)[O-])cc2)SC1=S)c1csc2c1CCCC2 [Compound 2d, 5-[(Z,2Z)-2-Chloro-3-(4-nitrophenyl)-2-propenylidene]-4-oxo-3-(4,5,6,7-tetrahydrobenzo[b]thiophen-3-ylcarboxamido)-2-thioxo-4-thiazolidinone] |  | 4.08 | 5.47 | 4.45 | 3.11 | > 230 |  |  |  | 
4 | O=C(Cc1ccccc1Nc1c(Cl)cccc1Cl)NN1C(=O)/C(=C/C(Cl)=C/c2ccc([N+](=O)[O-])cc2)SC1=S [Compound 2e, N^1-{5-[(Z,2Z)-2-Chloro-3-(4-nitrophenyl)-2-propenylidene]-4-oxo-2-thioxothiazolidin-3-yl}-2-[2-(2,6-dichloroanilino)phenyl]acetamide] |  | 17.1 | 16 | 17.9 | 15.8 | 257 to 258 |  |  |  | 
5 | O=C1/C(=C/C(Cl)=C/c2ccc([N+](=O)[O-])cc2)SC(=S)N1CCS(=O)(=O)O [Compound 2g, 2-{5-[(Z,2Z)-2-Chloro-3-(4-nitrophenyl)-2-propenylidene]-4-oxo-2-thioxothiazolidin-3-yl}-1-ethanesulfonic acid] |  | 18 | 27.5 | 26.4 | 16.8 | > 260 | low toxicity |  |  | 
6 | O=C(O)CCCCCN1C(=O)/C(=C/C(Cl)=C/c2ccc([N+](=O)[O-])cc2)SC1=S [Compound 2i, 6-{5-[(Z,2Z)-2-Chloro-3-(4-nitrophenyl)-2-propenylidene]-4-oxo-2-thioxothiazolidin-3-yl}hexanoic acid] | > 100 | 3.2 | 9.22 | 1.73 | 0.95 | > 220 | low toxicity | 0.95 to 1.74 |  | 
7 | O=C(O)CC(C(=O)O)N1C(=O)/C(=C/C(Cl)=C/c2ccc([N+](=O)[O-])cc2)SC1=S (stereo not drawn) [Compound 2k, 2-{5-[(Z,2Z)-2-Chloro-3-(4-nitrophenyl)-2-propenylidene]-4-oxo-2-thioxothiazolidin-3-yl}succinic acid] |  | 13.1 | 10 | 18.1 | 15.3 | 220 to 222 |  |  |  | 
8 | O=C(O)CCC(C(=O)O)N1C(=O)/C(=C/C(Cl)=C/c2ccc([N+](=O)[O-])cc2)SC1=S (stereo not drawn) [Compound 2l, 2-{5-[(Z,2Z)-2-Chloro-3-(4-nitrophenyl)-2-propenylidene]-4-oxo-2-thioxothiazolidin-3-yl}pentanedioic acid] |  | 12.6 | 9.19 | 21.2 | 17.5 | 205 to 207 |  |  |  | 
9 | O=C1NC(=N/c2ccc(F)cc2)/C(=C/C(Cl)=C/c2ccc([N+](=O)[O-])cc2)S1 [III] |  |  |  |  |  |  |  |  | weak | weak
